Results as given in US7087609B2, “3-(pyridinyl-piperazin-1-yl)-phenylethyl amides as potassium channel openers” (Bristol-Myers Squibb Company, priority 2002, dated 2006).

Molecular target: voltage-gated K+ channel KCNQ2 (Homo sapiens, UniProt O43526)
Assay: thallium flux assay to detect openers of KCNQ potassium channels
Assay type: cell-based
Settings: thallium influx assay; 10 point concentration series, 1:3 dilutions; concentration yielding 50% of maximal response (opening)
Excerpt: A thallium flux assay was used to detect and characterize openers of KCNQ potassium channels. The thallium assay is generally described in International application WO 02/31508 published Apr. 18, 2002. More specifically, the thallium influx assay to detect compounds that block or open the voltage-gated K^+ channel KCNQ2 is described in Example IV of the published WO 02/31508 application.
For data analysis, the amplitude of the average of the negative controls was subtracted from all wells. The amplitudes of the test compounds were then compared to the value of four standard deviations of the negative control wells. The lowest concentration of a test compound sufficient to generate a signal amplitude greater than or equal to four standard deviations from the amplitude of the negative controls was defined as the minimal active concentration.
For generating EC50 values, compounds were serially diluted in 1:3 volume increments to produce a 10 point concentration series. EC50 values were calculated by fitting the resulting amplitudes to a single-site logistic equation. EC50 was defined as the concentration of test compound required to yield 50% of the maximal response. Maximal response (Maximal opening) was the largest signal amplitude above the negative control generated by any concentration of a test compound.

voltage-gated K+ channel KCNQ2, sequence (O43526 whole entry): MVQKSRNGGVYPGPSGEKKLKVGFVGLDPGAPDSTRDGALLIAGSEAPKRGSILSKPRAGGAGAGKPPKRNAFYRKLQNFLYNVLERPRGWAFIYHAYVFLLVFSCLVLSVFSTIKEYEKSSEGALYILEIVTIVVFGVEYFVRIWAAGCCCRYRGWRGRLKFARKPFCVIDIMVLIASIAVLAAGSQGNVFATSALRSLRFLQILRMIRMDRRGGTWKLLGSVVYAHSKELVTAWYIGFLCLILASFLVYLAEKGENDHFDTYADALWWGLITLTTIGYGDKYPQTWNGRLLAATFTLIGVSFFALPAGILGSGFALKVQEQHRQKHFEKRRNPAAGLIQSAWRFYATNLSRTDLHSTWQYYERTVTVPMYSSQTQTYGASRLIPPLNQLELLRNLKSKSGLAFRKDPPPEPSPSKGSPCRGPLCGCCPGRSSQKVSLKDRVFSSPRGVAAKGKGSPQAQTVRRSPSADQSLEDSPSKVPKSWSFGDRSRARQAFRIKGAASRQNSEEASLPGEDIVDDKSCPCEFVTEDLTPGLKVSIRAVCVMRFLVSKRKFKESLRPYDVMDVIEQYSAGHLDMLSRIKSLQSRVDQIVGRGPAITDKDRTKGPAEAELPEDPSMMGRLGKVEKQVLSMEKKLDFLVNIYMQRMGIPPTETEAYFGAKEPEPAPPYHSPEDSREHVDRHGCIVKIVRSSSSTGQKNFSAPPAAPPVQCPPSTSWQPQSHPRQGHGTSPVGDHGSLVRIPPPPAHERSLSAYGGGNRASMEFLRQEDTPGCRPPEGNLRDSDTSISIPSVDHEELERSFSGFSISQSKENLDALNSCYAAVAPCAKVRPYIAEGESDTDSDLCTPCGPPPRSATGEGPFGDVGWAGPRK

EC50 [nM]	SMILES
476	C[C@H](NC(=O)/C=C/c1ccccc1F)c1cccc(N2CCN(c3ccccn3)CC2)c1 [Example 3, (S)-3-(2-Fluoro-phenyl)-N-{1-[3-(4-pyridin-2-yl-piperazin-1-yl)-phenyl]-ethyl}-acrylamide]
1	C[C@H](NC(=O)/C=C/c1ccc(F)cc1F)c1cccc(N2CCN(c3ccccn3)CC2)c1 [Example 11, (S)-3-(2,4-Difluoro-phenyl)-N-{1-[3-(4-pyridin-2-yl-piperazin-1-yl)-phenyl]-ethyl}-acrylamide]
4	C[C@H](NC(=O)/C=C/c1cc(F)ccc1F)c1cccc(N2CCN(c3ccccn3)CC2)c1 [Example 12, (S)-3-(2,5-Difluoro-phenyl)-N-{1-[3-(4-pyridin-2-yl-piperazin-1-yl)-phenyl]-ethyl}-acrylamide]

More lines, now with the values behind:

SMILES	EC50 [nM]
C[C@H](NC(=O)/C=C/c1cccc(F)c1F)c1cccc(N2CCN(c3ccccn3)CC2)c1 [Example 10, (S)-3-(2,3-Difluoro-phenyl)-N-{1-[3-(4-pyridin-2-yl-piperazin-1-yl)-phenyl]-ethyl}-acrylamide]	1
C[C@H](NC(=O)/C=C/c1c(F)cccc1F)c1cccc(N2CCN(c3ccccn3)CC2)c1 [Example 13, (S)-3-(2,6-Difluoro-phenyl)-N-{1-[3-(4-pyridin-2-yl-piperazin-1-yl)-phenyl]-ethyl}-acrylamide]	280
C[C@H](NC(=O)/C=C/c1ccc(Cl)cc1F)c1cccc(N2CCN(c3ccccn3)CC2)c1 [Example 17, (S)-3-(4-Chloro-2-fluoro-phenyl)-N-{1-[3-(4-pyridin-2-yl-piperazin-1-yl)-phenyl]-ethyl}-acrylamide]	1
